Assay results published in patent US7550437B2, “Compositions for preventing and treating digestive organs diseases” (Fuso Pharmaceutical Industries, Ltd., priority 2000, dated 2009).
No end group written: not given here.

Legend:
[1] = system: rat gastric mucosal cells; experiment: Mucin secretion from rat gastric mucosal cells in vivo (galactose in gastric juice); conditions: amastatin 2.5 μmol/kg i.v., FIG. 2
Description: The gastric pylorus was ligated by the same procedure as described above. Amastatin (2.5 μmol/kg) was administered intravenously immediately after the ligation, and SLp-NH2, LSp-NH2 or tcLP-NH2 was administered intravenously at 1 minute after administration of amastatin. 30 minutes after ligation, the rats was exsanguinated to kill, the stomach was isolated, and the gastric juice was collected. The collected sample of gastric juice was centrifuged at 10000×g for 30 min, and the supernatant was subjected to ultrafiltration with Millipore MC FREE (MW10000), followed by lyophilization. 2M TFA was added to the lyophilized sample, which was hydrolyzed under the conditions at 100° C. for 4 hours. Centrifugal separation was then performed and the supernatant was evaporated to dryness. 200 μL of 0.1 M Tris-HCl was added to the evaporated and dried sample to dissolve it. After 150 μL of a reaction solution containing galactose oxidase (1U), peroxidase (0.5 mU) and HPPA (0.25 μmol) was added to 50 μL of the sample and the mixture was incubated at 37° C. for 30 minutes, an amount of galactose was measured at an excitation wavelength of 320 nm and an fluorescence wavelength of 405 nm.

[2] = target: T1, PAR-2 (Homo sapiens, UniProt P55085); conditions: literature statement; cited from earlier work
T1 sequence (P55085 26-397): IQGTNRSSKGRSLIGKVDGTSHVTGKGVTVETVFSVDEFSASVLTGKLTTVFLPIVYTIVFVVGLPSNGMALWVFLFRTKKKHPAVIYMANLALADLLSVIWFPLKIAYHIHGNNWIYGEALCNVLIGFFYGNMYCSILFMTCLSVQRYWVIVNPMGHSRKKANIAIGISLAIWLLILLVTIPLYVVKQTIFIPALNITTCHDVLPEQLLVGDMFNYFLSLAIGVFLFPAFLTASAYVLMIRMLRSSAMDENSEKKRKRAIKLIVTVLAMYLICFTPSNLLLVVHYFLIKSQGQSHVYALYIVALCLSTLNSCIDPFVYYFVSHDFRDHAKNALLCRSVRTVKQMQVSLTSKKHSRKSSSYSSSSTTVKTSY

[3] = system: gastric acid secretion accelerated by carbachol; experiment: Carbachol-induced gastric acid secretion in pylorus-ligated rats; assay type: in vivo, rat; conditions: carbachol 60 μg/kg s.c., amastatin 2.5 μmol/kg i.v., FIG. 1
Description: In an experiment, male Wistar rats at 5 weeks of age were used. After each animal was pre-bred for one week under the circumstance of a room temperature of 23±2° C., the humidity of 50±5%, and the light-and-darkness cycle (light term: from 07:00 to 19:00) of 12 hours, each animal was subjected to the experiment. Water and solid feed were supplied freely during the pre-breeding period and the experiment period.
Moreover, the number of animals used in the experiment was 4-14 animals in all cases, and the results were shown by Mean±Standard Error. The significant difference test was performed by Tukey's multiple comparison test.
A rat was anesthetized with ether after 18-24 hours of fasting, and an abdomen was incised by about 1 cm below a lower end of xiphoid sternum. Duodenum was pinched out of the opened abdominal hole, a part joining pylorus and duodenum was ligated, and the incised abdomen was sutured. After 30 minutes, the rat was exsanguinated to kill, the stomach was isolated, and gastric juice was collected. After the collected gastric juice was filtered, the acidity in the gastric juice was measured by a titration method. […]

[4] = system: lesion in gastric mucosa by hydrochloric acid-ethanol; experiment: Hydrochloric acid-ethanol-induced gastric mucosa lesion; assay type: in vivo, rat; conditions: 0.25 and 0.5 μmol/kg i.v. 5 min before 60% ethanol containing 150 mM hydrochloric acid p.o.; amastatin 2.5 μmol/kg; FIG. 4
Description: (§1) Preparation of ethanol- and hydrochloric acid-ethanol-induced gastric mucosa lesion was performed according to the method of Robert et al. (Robert, A. et al., Gastroenteral, 77, 433-443, 1979). That is, after the rats were fasted for 18 to 24 hours, 1 mL of 75% ethanol or 60% ethanol containing 150 mM hydrochloric acid was administered orally. Rats were exsanguinated to kill after 60 min and their stomaches were isolated. The isolated stomach was incised along with greater curvature, washed and fixed with 10% formaldehyde, and an area of gastric mucosa lesion was measured using Image analyzing software, Mac acpect (Mitani corporation, Chiba prefecture). SLp-NH2 was administered intravenously at 5 minutes before administration of 75% ethanol or 60% ethanol containing 150 mM hydrochloric acid. Amastatin (2.5 μmol/kg) was administered at 1 minute before administration of SLp-NH2.

[5] = system: gastric mucosa lesion by ethanol; experiment: Ethanol-induced gastric mucosa lesion; assay type: in vivo, rat; conditions: 0.25 and 0.5 μmol/kg i.v. 5 min before 75% ethanol p.o.; amastatin 2.5 μmol/kg; FIG. 3
Description: as §1

[6] = target: T2, human PAR-1 (Homo sapiens, UniProt P25116); conditions: literature statement; cited from earlier work
T2 sequence (P25116 22-425): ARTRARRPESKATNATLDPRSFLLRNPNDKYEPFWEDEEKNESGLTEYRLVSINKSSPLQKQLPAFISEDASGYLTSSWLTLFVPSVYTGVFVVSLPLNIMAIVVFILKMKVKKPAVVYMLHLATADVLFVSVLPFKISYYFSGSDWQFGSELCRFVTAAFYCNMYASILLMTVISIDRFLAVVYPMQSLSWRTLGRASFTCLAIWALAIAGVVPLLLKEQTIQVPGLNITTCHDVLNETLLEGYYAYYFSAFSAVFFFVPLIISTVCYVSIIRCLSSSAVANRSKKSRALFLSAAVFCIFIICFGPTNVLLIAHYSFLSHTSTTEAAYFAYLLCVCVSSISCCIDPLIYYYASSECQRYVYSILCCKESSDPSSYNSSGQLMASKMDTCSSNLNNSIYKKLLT

Leu-Ser-Ile-Gly-Arg-Leu-NH2 (LSIGRL-NH2) [LSp-NH2, control peptide for SLp-NH2]
effect on mucin secretion from rat gastric mucosal cells ([1]; i.v., dose not given): did not affect mucin secretion
agonist activity on PAR-2 [2]: inactive substance
effect on gastric acid secretion accelerated by carbachol (amount of secreted gastric acid) ([3]; 5 μmol/kg i.v.): did not affect

Ser-Leu-Ile-Gly-Arg-Leu-NH2 (SLIGRL-NH2) [SLp-NH2]
effect on gastric mucosa lesion (area) by hydrochloric acid-ethanol [4]: the protective effect was shown
effect on mucin secretion from rat gastric mucosal cells ([1]; 0.02 to 5 μmol/kg i.v.): accelerated dose-dependently
effect on gastric acid secretion accelerated by carbachol (amount of secreted gastric acid) ([3]; 1.25 to 5 μmol/kg i.v.): inhibited dose-dependently
effect on gastric mucosa lesion (area) by ethanol [5]: showed the protective effect

Ser-Phe-Leu-Leu-Arg-NH2 (SFLLR-NH2) [SFp-NH2]
agonist activity on human PAR-1 [6]: agonist activity on human PAR-1
agonist activity on PAR-2 [2]: week agonist activity on PAR-2

trans-cinnamoyl-Leu-Ile-Gly-Arg-Leu-ornithine-NH2 [tcLp-NH2]
effect on mucin secretion from rat gastric mucosal cells ([1]; i.v., dose not given): also accelerated the mucin secretion
agonist activity on PAR-2 [2]: specifically activate PAR-2
